Experimental data as given in patent US7459481B2, “Stimulation of CPT-1 as a means to reduce weight” (The Johns Hopkins University School of Medicine Licensing …, priority 2002, dated 2008).

Columns and labels:
MCF-7 cells [1] = assay: Fatty acid oxidation ([1-14C]palmitate to 14CO2) in MCF-7 cells; type: cell-based, human
Protocol: Human breast cancer cell line MCF-7 was obtained from the American Type Culture Collection. 1×10^6 MCF-7 cells were plated in T-25 flasks in triplicate and incubated overnight at 37° C. Drugs were then added as indicated diluted from 5 mg/ml stock in DMSO. After 2 hours, medium with drugs was removed and cells were preincubated for 30 min. with 1.5 ml of the following buffer: 114 mM NaCl, 4.7 mM KCl, 1.2 mM KH2PO4, 1.2 mM MgSO4, glucose 11 mM. After preincubation, 200 μl of assay buffer was added containing: 114 mM NaCl, 4.7 mM KCl, 1.2 mM KH2PO4, 1.2 mM MgSO4, glucose 11 mM, 2.5 mM palmitate (containing with 10 μCi of [1-^14C]palmitate) bound to albumin, 0.8 mM L-carnitine, and cells were incubated at 37° C. for 2 h. Following the incubation, 400 μl of benzethonium hydrochloride was added to the center well to collect released ^14CO2. Immediately, the reaction was stopped by adding 500 μl of 7% perchloric acid to the cells. The flasks with wells were then incubated for 2 h at 37° C. after which the benzothonium hydrochloride was removed and counted for ^14C. Blanks were prepared by adding 500 μl of 7% perchloric acid to the cells prior to the incubation with the assay buffer for 2 h.
(§1) FAS activity was measured by monitoring the malonyl-CoA dependent oxidation of NADPH spectrophotometrically at OD340 in 96-well plates, as described in International Patent Publication WO 2004/005277. The IC50 for the compounds against FAS was determined by plotting the change in OD340 against time for each inhibitor concentration tested and determining the rate of change by linear regression. The concentration of a particular compound yielding 50% inhibition of the rate for FAS in the absence of the compound is the IC50. Stimulation of CPT-1 activity was measured as described in Example 2, except the cells were preincubated with the compound for 2 hours at the concentrations indicated in the table. Stimulation of Fatty acid oxidation was determined as described in Example 1 for cells preincubated with the compounds at the concentrations indicated in the table.

CPT-1 = target: T1, CPT-1 (Homo sapiens, UniProt P50416); assay: CPT-1 activity assay in MCF-7 cells; type: cell-based
T1 construct: endogenous in cells; host or cells: MCF-7 human breast cancer cells
T1 sequence (P50416 1-773): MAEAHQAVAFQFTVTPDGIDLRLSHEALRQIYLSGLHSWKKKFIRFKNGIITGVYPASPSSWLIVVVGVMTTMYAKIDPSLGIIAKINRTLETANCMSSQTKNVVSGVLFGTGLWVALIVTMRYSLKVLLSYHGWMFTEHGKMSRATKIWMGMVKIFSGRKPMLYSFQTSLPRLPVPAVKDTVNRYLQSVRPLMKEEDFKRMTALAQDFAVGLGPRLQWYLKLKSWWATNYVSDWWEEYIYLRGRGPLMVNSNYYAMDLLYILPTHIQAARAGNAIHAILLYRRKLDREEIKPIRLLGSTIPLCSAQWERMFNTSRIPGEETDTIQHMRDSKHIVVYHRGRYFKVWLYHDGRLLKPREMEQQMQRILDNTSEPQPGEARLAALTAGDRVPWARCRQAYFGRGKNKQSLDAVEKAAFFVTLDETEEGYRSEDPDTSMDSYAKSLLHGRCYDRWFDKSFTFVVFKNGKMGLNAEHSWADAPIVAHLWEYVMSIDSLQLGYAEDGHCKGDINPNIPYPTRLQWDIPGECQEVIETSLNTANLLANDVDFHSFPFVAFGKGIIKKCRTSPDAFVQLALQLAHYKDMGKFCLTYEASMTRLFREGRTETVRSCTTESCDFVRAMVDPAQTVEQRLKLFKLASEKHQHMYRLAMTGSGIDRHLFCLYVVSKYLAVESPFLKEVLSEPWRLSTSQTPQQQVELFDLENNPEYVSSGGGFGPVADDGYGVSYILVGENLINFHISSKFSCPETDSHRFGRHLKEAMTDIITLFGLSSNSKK
Protocol: CPT-1 activity was assayed in MCF-7 cells by the following published procedure: MCF-7 cells were plated in DMEM with 10% fetal bovine serum at 10^6 cells in 24-well plates in triplicate. Following overnight incubation at 37° C., the medium was removed and replaced with 700 μl of assay medium consisting of: 50 mM imidazole, 70 mM KCl, 80 mM sucrose, 1 mM EGTA, 2 mM MgCl2, 1 mM DTT, 1 mM KCN, 1 mM ATP, 0.1% fatty acid free bovine serum albumin, 70 μM palmitoyl-CoA, 0.25 μCi [methyl-^14C]L-carnitine, 40 μg digitonin with or without 20 μM malonyl-CoA. After incubation for 6 minutes at 37° C., the reaction was stopped by the addition of 500 μl of ice-cold 4 M perchloric acid. Cells were then harvested and centrifuged at 13,000×g for 5 min. The pellet was washed with 500 μl ice cold 2 mM perchloric acid and centrifuged again. The resulting pellet was resuspended in 800 μl dH2O and extracted with 150 μl of butanol. The butanol phase was counted by liquid scintillation and represents the acylcarnitine derivative.
MCF-7 cells were treated with C75 at 10 or 20 μg/mL for 1 hr before CPT-1 activity was assayed. The assay was performed with the C75 and malonyl-CoA concentrations indicated (“M” indicates malonyl-CoA at 20 uM). Malonyl-CoA treatment alone caused a 46% reduction in CPT-1 activity similar to the previous experiment (see FIG. 2; p=0.02, two-tailed t-test, Prism 3.0). The level of malonyl-CoA inhibition of the CPT-1 activity is consistent with the activity of the liver isoform of CPT-1 in MCF-7 cells. The Ki of malonyl-CoA for the liver isoform of CPT-1 is ˜7 μM while the Ki for the muscle isoform of CPT-1 is 0.07 μM. Thus, MCF-7 cells express predominantly the liver isoform of CPT-1 (consistent with the immunoblot analysis).
as §1

FAS = FAS (Homo sapiens, UniProt P49327); assay: FAS activity, malonyl-CoA dependent oxidation of NADPH at OD340; type: biochemical
Sequence of FAS (P49327 whole entry): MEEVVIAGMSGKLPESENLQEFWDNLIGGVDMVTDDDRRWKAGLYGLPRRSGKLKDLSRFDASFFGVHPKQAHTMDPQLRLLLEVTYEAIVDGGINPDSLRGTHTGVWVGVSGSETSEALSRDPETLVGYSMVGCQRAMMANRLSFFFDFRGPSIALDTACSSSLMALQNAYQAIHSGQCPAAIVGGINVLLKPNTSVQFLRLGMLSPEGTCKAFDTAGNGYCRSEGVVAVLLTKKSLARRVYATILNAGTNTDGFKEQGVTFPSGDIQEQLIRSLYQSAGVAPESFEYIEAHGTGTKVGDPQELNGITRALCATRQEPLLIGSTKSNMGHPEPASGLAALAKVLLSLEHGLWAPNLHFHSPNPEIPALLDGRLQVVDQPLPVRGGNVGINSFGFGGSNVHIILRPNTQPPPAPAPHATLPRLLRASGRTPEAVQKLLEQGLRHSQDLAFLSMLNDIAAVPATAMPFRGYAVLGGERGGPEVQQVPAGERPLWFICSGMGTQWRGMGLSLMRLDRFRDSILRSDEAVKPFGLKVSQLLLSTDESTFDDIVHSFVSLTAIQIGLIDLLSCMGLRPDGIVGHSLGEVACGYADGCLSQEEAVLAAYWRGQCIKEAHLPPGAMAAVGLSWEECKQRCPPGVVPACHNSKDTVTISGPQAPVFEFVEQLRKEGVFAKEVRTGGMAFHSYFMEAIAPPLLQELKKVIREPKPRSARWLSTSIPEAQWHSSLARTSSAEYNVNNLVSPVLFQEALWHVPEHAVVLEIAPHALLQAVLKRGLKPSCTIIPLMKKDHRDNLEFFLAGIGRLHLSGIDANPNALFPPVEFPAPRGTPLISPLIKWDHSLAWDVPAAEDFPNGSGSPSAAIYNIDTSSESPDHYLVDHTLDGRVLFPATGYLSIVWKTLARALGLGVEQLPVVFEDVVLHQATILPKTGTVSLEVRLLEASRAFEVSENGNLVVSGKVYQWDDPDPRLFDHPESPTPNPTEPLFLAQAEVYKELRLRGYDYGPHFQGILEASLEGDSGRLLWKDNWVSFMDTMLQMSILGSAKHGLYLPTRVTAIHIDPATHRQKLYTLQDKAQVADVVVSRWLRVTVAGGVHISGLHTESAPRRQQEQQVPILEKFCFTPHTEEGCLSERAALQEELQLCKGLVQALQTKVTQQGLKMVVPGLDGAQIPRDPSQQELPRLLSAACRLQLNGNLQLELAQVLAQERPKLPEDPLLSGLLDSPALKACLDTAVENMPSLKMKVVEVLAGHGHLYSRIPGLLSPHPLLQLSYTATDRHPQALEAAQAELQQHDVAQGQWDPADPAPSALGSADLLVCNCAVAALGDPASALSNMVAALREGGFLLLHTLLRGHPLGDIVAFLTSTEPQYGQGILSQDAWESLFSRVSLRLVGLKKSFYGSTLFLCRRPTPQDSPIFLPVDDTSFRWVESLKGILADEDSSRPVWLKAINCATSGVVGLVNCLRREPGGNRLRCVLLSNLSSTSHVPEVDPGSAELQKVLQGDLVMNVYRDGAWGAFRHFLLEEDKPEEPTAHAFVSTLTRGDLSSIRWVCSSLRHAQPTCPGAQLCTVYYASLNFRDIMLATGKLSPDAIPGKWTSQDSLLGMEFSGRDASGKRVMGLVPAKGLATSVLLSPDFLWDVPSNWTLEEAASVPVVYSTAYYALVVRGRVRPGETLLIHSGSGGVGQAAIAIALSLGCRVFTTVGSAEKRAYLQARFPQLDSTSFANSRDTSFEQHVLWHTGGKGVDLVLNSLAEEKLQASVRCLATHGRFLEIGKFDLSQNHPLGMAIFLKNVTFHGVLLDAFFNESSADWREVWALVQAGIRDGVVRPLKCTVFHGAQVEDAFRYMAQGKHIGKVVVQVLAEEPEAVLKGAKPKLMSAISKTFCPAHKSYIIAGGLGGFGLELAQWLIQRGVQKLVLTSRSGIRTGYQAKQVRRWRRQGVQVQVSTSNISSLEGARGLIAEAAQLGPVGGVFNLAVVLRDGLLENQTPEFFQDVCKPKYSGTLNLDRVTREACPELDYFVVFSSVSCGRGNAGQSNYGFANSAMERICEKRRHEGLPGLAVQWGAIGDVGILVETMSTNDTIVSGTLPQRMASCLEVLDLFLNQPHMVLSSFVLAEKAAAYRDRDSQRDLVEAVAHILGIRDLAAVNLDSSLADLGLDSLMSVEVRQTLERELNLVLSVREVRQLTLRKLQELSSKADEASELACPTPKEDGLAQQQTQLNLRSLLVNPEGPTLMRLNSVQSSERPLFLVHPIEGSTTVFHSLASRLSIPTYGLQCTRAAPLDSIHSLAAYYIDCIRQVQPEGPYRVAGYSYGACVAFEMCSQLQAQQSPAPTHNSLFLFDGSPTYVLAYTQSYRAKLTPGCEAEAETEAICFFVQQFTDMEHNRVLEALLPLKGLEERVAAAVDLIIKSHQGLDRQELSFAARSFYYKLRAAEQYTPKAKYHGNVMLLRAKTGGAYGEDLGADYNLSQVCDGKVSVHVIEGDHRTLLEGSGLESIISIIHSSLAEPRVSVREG
Protocol: as §1

MCF-7 cells [2] = details: cited from earlier work

## C=C1C(=O)OC(CCCCCCCC)C1C(=O)O (centres unmarked) [Compound C75]
MCF-7 cells [1]; 10 μg/mL
  Fatty Acid Oxidation (% Control): 400 % Control
MCF-7 cells [1]; MCF-7, doses from 5-20 μg/ml
  effect on fatty acid oxidation: increased fatty acid oxidation
MCF-7 cells [1]; MCF-7, treated 2 hours before measurement, FIG. 1
  increase in fatty acid oxidation compared to the control: 156%
CPT-1; 20 μg/mL, cells preincubated 2 hours
  CPT-1 Stimulation (% Control): 125 % Control
CPT-1; MCF-7, 20 μg/ml 1 hr before assay, FIG. 4
  CPT-1 activity, % of control: 166 % of control
CPT-1; MCF-7, 20 μg/ml for one hour before assay, no C75 in the assay buffer, FIG. 3
  CPT-1 activity, % of control: 158 % of control
CPT-1; MCF-7, C75 20 μg/ml one hour pretreatment, FIG. 3
  CPT-1 stimulation after C75 removed from buffer and malonyl-CoA 20 μM added: stimulatory activity is lost
CPT-1; MCF-7, C75 10 or 20 μg/mL 1 hr, malonyl-CoA 20 uM, FIG. 2
  difference in CPT-1 activity between C75 and C75 plus malonyl-CoA: no statistically significant difference
CPT-1; MCF-7 cells in vitro
  stimulated CPT-I activity: 150-160%
FAS
  FAS Inhibition (IC50): 55 µg/mL
MCF-7 cells [2]
  increase in malonyl-CoA: > 5 fold
